Like-named read-outs stand apart in the source and are kept apart here.
How the values were obtained:
Format in all cases: physicochemical
[1] = Dynamic vapor sorption (DVS), hygroscopicity
Description: Dynamic vapor sorption (“DVS”) was performed at 25° C., using approx 10-15 mg of sample and N2 gas at a flow rate of 200 mL/min, dm/dt=0.01% min, minimum dm/dt stability duration of 10 min, max equilibration time of 180 min, drying at 0% RH for 120 min, scanning from 0% RH to 90% RH to 0% RH with a step size of 10% RH.
Total cycling time varied, but in all cases was about 200-250 min.

[2] = Solubility in physiologically relevant solutions (SGF, FaSSIF, FeSSIF); conditions: 25±0.5° C.; for solubility at 24 h: 25 °C, thermodynamic from solid
Description: Solubility of the free base 1 and the selected salts 8, 9, 10, and 11 in physiologically relevant solutions were examined. For each material, aliquots were added to 2 ml vials containing 500 uL of either SGF, FaSSIF, or FeSSIF, which were then sealed. The mixtures were kept shaking by thermomixer at 700 rpm, 25±0.5° C. for 24 h to facilitate the dissolution and then centrifuged by 96-well plates at 3000 rpm for 2 min. The filter liquors were diluted with diluents (ACN/water, 50/50) and analyzed by HPLC.

[3] = Stability (50° C., 40° C./75% RH, light; 1 week); conditions: for XRPD change? / purity: bulk, 1 week
Description: The stability of the free base 1 and the selected salts 8, 9, 10, and 11 was evaluated. For each material, aliquots were set up at each of conditions (50° C., 40° C./75% RH, light) at given time points (initial and 1 week). PXRD diffractograms of the hydrogen fumarate salt 11 is shown in FIG. 17, with trace (a) showing the initial salt, trace (b) showing the salt after light treatment, trace (c) showing the salt after storage at 40° C. and 75% relative humidity for 1 week, and (d) showing the salt after storage at 50° C. for 1 week.

CC(C)c1nc(-c2cnc(N)c(OC(F)(F)F)c2)cn1C12CC(N3CCOCC3)(C1)C2.O=C(O)CC(O)(CC(=O)O)C(=O)O [Example 8, 5-(2-isopropyl-1-(3-morpholinobicyclo[1.1.1]pentan-1-yl)-1H-imidazol-4-yl)-3-(trifluoromethoxy)pyridin-2-amine dihydrogen citrate]
Maximum sorption ([1]; DVS, 25° C.): 0.60% | Hygroscopicity (0-40% RH) ([1]; DVS, 25° C., 0-40% RH): 0.17% | Hygroscopicity (0-90% RH) ([1]; DVS, 25° C., 0-90% RH): 0.6% | Change in mass, Desorption ([1]; DVS, Target % P/P0 0.0): 0.0373% | Change in mass, Sorption ([1]; DVS, Target % P/P0 0.0): 0.0000% | Change in mass, Desorption ([1]; DVS, Target % P/P0 10.0): 0.0913% | Change in mass, Hysteresis ([1]; DVS, Target % P/P0 10.0): 0.0426% | Change in mass, Sorption ([1]; DVS, Target % P/P0 10.0): 0.0487% | Change in mass, Desorption ([1]; DVS, Target % P/P0 20.0): 0.1293% | Change in mass, Hysteresis ([1]; DVS, Target % P/P0 20.0): 0.0411% | Change in mass, Sorption ([1]; DVS, Target % P/P0 20.0): 0.0882% | Change in mass, Desorption ([1]; DVS, Target % P/P0 30.0): 0.1757% | Change in mass, Hysteresis ([1]; DVS, Target % P/P0 30.0): 0.0502% | Change in mass, Sorption ([1]; DVS, Target % P/P0 30.0): 0.1255% | Change in mass, Desorption ([1]; DVS, Target % P/P0 40.0): 0.2145% | Change in mass, Hysteresis ([1]; DVS, Target % P/P0 40.0): 0.0418% | Change in mass, Sorption ([1]; DVS, Target % P/P0 40.0): 0.1727% | Change in mass, Desorption ([1]; DVS, Target % P/P0 50.0): 0.2609% | Change in mass, Hysteresis ([1]; DVS, Target % P/P0 50.0): 0.0418% | Change in mass, Sorption ([1]; DVS, Target % P/P0 50.0): 0.2191% | Change in mass, Desorption ([1]; DVS, Target % P/P0 60.0): 0.3119% | Change in mass, Hysteresis ([1]; DVS, Target % P/P0 60.0): 0.0388% | Change in mass, Sorption ([1]; DVS, Target % P/P0 60.0): 0.2731% | Change in mass, Desorption ([1]; DVS, Target % P/P0 70.0): 0.3743% | Change in mass, Hysteresis ([1]; DVS, Target % P/P0 70.0): 0.0320% | Change in mass, Sorption ([1]; DVS, Target % P/P0 70.0): 0.3423% | Change in mass, Desorption ([1]; DVS, Target % P/P0 80.0): 0.4565% | Change in mass, Hysteresis ([1]; DVS, Target % P/P0 80.0): 0.0228% | Change in mass, Sorption ([1]; DVS, Target % P/P0 80.0): 0.4336% | Change in mass, Desorption ([1]; DVS, Target % P/P0 90.0): 0.6040% | Change in mass, Sorption ([1]; DVS, Target % P/P0 90.0): 0.6040% | Hygroscopicity; form change ([1]; form change after DVS): no change | solubility at 24 h ([2]; simulated gastric fluid, SGF, read-out: Solubility SGF Conc): 6330 µg/mL | solubility at 24 h ([2]; FaSSIF, read-out: Solubility FaSSIF Conc): 113 µg/mL | solubility at 24 h ([2]; FeSSIF, read-out: Solubility FeSSIF Conc): 773 µg/mL | FaSSIF pH after 24 h ([2]; FaSSIF): 5.53 | FeSSIF pH after 24 h ([2]; FeSSIF): 4.86 | SGF pH after 24 h ([2]; SGF): 3.26 | XRPD change? ([3]; 40° C., 75% RH): no | purity ([3]; 40° C., 75% RH): 99.41% | XRPD change? ([3]; 50° C.): no | purity ([3]; 50° C.): 98.91% | initial purity ([3]; initial (before storage)): 99.58% | XRPD change? ([3]; light): no | purity ([3]; light): 99.44%
